Data: patent US6596863B2, “Medical composition containing nitroetheneamine Derivative or salt there of as active constituent” (Ishihara Sangyo Kaisha, Ltd., priority 1998, dated 2003)
Where two headings read alike, the source gives them in different places.

Key:
[1] = target: T1, human MMP-9 (gelatinase B) (Homo sapiens, UniProt P14780); assay: Inhibition activity against human MMP-9 (gelatinase B), fluorescent peptide substrate; assay type: biochemical; settings: compounds of the formula (I)
T1 construct: endogenous in cells; host or cells: HT1080 human fibrosarcoma cells (ATCC CCL-121), PMA-stimulated; enzyme purified from the culture supernatant
How it was run: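 MMP-9 purified from PMA-stimulated (10 ng/ml) HT1080 supernatant, or commercial enzyme (0.0125-0.025 unit/ml or 0.2 μg/ml final), incubated with compound and 10 μM final Mca-Pro-Leu-Gly-Leu-Dpa-Ala-Arg-NH2 fluorescent substrate at 37 °C for 3 h in the dark. Precursor enzyme activated with APMA.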

[2] = 1st measurement, read-out: MMP-9 inhibition activities IC50, 1st
[3] = 2nd measurement, read-out: MMP-9 inhibition activities IC50, 2nd
[4] = average of 1st and 2nd (or single measurement), read-out: MMP-9 inhibition activities IC50, Average

T1 sequence (P14780 107-707 limits assumed): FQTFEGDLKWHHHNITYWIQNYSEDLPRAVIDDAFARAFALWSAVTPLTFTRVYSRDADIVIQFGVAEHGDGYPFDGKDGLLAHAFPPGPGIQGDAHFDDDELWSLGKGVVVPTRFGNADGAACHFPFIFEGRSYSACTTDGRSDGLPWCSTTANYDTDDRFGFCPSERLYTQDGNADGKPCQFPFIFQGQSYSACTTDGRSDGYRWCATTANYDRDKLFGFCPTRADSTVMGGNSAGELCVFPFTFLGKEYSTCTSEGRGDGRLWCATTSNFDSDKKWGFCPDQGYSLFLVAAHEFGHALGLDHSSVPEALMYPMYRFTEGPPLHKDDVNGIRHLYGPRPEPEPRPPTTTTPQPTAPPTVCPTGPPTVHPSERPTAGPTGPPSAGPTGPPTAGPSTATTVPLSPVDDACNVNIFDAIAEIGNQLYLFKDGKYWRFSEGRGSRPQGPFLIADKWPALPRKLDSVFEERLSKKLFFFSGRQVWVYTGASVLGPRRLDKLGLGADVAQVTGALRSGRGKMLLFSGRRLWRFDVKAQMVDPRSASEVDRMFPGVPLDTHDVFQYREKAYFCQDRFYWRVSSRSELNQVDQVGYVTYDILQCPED

Compound | IC50 [1, 2] | IC50 [1, 3] | IC50 [1, 4] | melting point
CNC(=C[N+](=O)[O-])NN=CC=Cc1ccccc1 [compound 144] | 4.8 µM | 14.9 µM | 9.9 µM | 180 °C (dec.)
CNC(=C[N+](=O)[O-])NNc1cccc(Cl)n1 [compound 145] | 1.7 µM | 4.1 µM | 2.9 µM | 221 °C (dec.)
CNC(=C[N+](=O)[O-])NNc1ccnc2cc(Cl)ccc12 [compound 146] | 18.4 µM | 29.4 µM | 23.9 µM | 210 °C (dec.)
CNC(=C[N+](=O)[O-])NNc1ccnc2cc(C(F)(F)F)ccc12 [compound 147] | 35 µM | 39.9 µM | 37.5 µM | 235 °C (dec.)
CNC(=C[N+](=O)[O-])NNc1nc(-c2ccccc2)nc2ccccc12 [compound 148] | 33.5 µM | 21.7 µM | 27.6 µM | 272 °C (dec.)
CNC(=C[N+](=O)[O-])NNS(=O)(=O)c1cccc2ccccc12 [compound 150] | 14.8 µM | 11.4 µM | 13.1 µM | 168 °C (dec.)
NNC(=C[N+](=O)[O-])Nc1ccc2cn[nH]c2c1 [compound 152] | 29.6 µM | 16.3 µM | 23 µM | 209 to 213 °C (dec.)
NNC(=C[N+](=O)[O-])NS(=O)(=O)c1ccccc1 [compound 156] | 38.3 µM | 41.8 µM | 40.1 µM | 210 °C (dec.)
O=[N+]([O-])C=C(NNc1cc(C(F)(F)F)cc(Cl)n1)NS(=O)(=O)c1ccccc1 [compound 159] | 7.9 µM |  | 7.9 µM | 170 to 173 °C (dec.)
COCCNC(=C[N+](=O)[O-])NNc1cc(C(F)(F)F)cc(Cl)n1 [compound 160] | 9.4 µM |  | 9.4 µM | 175 to 178 °C (dec.)
CCS(=O)(=O)NC(=C[N+](=O)[O-])NNc1cc(C(F)(F)F)cc(Cl)n1 [compound 161] | 6 µM |  | 6 µM | 114 to 119 °C (dec.)
O=[N+]([O-])C=C(NNc1cc(C(F)(F)F)cc(Cl)n1)NS(=O)(=O)c1ccc(-c2ccccc2)cc1 [compound 162] | 6.3 µM |  | 6.3 µM | 171 to 174 °C
CC(=C(NNc1cc(C(F)(F)F)cc(Cl)n1)NS(C)(=O)=O)[N+](=O)[O-] [compound 165] | 3.2 µM |  | 3.2 µM | 30 to 33 °C
CNC(=C[N+](=O)[O-])NN=Cc1ccc(C(F)(F)F)cc1 [compound 166] | 7.8 µM |  | 7.8 µM | 188 to 189 °C
CNC(=C[N+](=O)[O-])NN=Cc1cccc(C(F)(F)F)c1 [compound 167] | 14 µM |  | 14 µM | 180 °C
CNC(=C[N+](=O)[O-])NNc1cccc(C(F)(F)F)n1 [compound 168] | 7.1 µM | 7.3 µM | 7.2 µM | 197 °C (dec.)
O=[N+]([O-])C=C(NCC1CCCO1)NNc1cc(C(F)(F)F)cc(Cl)n1 (stereo not shown) [compound 169] | 6 µM | 9.6 µM | 7.8 µM | 164 °C (dec.)
CNC(=C[N+](=O)[O-])NNc1ncnc2c(C)csc12 [compound 170] | 5.6 µM |  | 5.6 µM | 216 °C (dec.)
CNC(=C[N+](=O)[O-])NNc1ccc(Cl)cn1 [compound 172] | 0.82 µM | 1.1 µM | 0.96 µM | 206 °C (dec.)

Compound | IC50 [1, 2] | IC50 [1, 3] | IC50 [1, 4] | melting point
CNC(=C[N+](=O)[O-])NNc1cc(C(F)(F)F)cc(OCc2ccccc2Cl)n1 [compound 174] | 9 µM |  | 9 µM | 162 °C (dec.)
CCCCOc1cc(C(F)(F)F)cc(NNC(=C[N+](=O)[O-])NC)n1 [compound 177] | 10.7 µM | 6.1 µM | 8.4 µM | 169 °C (dec.)
CCCCOc1cc(C(F)(F)F)cc(NNC(=C[N+](=O)[O-])NC)n1 [compound 178] | 11.8 µM | 12.5 µM | 12.2 µM | 161 °C (dec.)
CNC(=C[N+](=O)[O-])NN=Cc1ncc(C(F)(F)F)cc1Cl [compound 179] | 8.3 µM |  | 8.3 µM | 171 °C (dec.)
CNC(=C[N+](=O)[O-])NNc1cc(C(F)(F)F)cc(OCC(F)(F)F)n1 [compound 181] | 11.6 µM |  | 11.6 µM | 180 °C (dec.)
CNC(=C[N+](=O)[O-])NNc1cc(OCCOC)cc(C(F)(F)F)c1 [compound 182] | 7 µM | 5.6 µM | 6.4 µM | 138 °C
CNC(=C[N+](=O)[O-])NNc1cc(C(F)(F)F)cc(OCC2CC2)n1 [compound 184] | 20 µM | 10.6 µM | 15.3 µM | 167 °C (dec.)
CNC(=C[N+](=O)[O-])NNc1c(Cl)cncc1Cl [compound 186] | 12.3 µM |  | 12.3 µM | 197 °C (dec.)
CNC(=C[N+](=O)[O-])NNc1cc(C(F)(F)F)cc(OCCN2CCOCC2)n1 [compound 188] | 6.2 µM |  | 6.2 µM | 166 °C (dec.)
CNC(=C[N+](=O)[O-])NNc1cc(C(F)(F)F)cc(OCCSC)n1 [compound 189] | 11.1 µM |  | 11.1 µM | 94 °C
CCCCOCCOc1cc(C(F)(F)F)cc(NNC(=C[N+](=O)[O-])NC)n1 [compound 192] | 8.1 µM | 13.6 µM | 10.9 µM | 128 °C
CNC(=C[N+](=O)[O-])NNc1cc(C(F)(F)F)cc(OCCOC(C)(C)C)n1 [compound 193] | 10.5 µM |  | 10.5 µM | 170 °C (dec.)
CNC(=C[N+](=O)[O-])NNc1cc(C(F)(F)F)cc(OCCOCCOC)n1 [compound 194] | 4.9 µM | 8.4 µM | 6.7 µM | 128 °C
CNC(=C[N+](=O)[O-])NNc1cc(C(F)(F)F)cc(OCCSc2ccccc2)n1 [compound 195] | 11.6 µM |  | 11.6 µM | 170 °C (dec.)
CNC(=C[N+](=O)[O-])NNc1cc(C(F)(F)F)cc(OCCOC(C)C)n1 [compound 196] | 11.2 µM |  | 11.2 µM | 167 °C (dec.)
CCOCCCOc1cc(C(F)(F)F)cc(NNC(=C[N+](=O)[O-])NC)n1 [compound 197] | 10.3 µM | 10.9 µM | 10.6 µM | 147 °C
O=[N+]([O-])C=C(NCCCCO)NNc1cc(C(F)(F)F)cc(Cl)n1 [compound 199] | 5.7 µM | 6.2 µM | 6 µM | 150 to 151 °C
Cc1cc(C)c(S(C)(=O)=O)c(NNC(=C[N+](=O)[O-])NS(C)(=O)=O)n1 [compound 202] | 6.3 µM |  | 6.3 µM | 170 °C (dec.)
